Test [1] concerns cardiovascular receptors (cultured aortic smooth muscle cells). Conditions: read-out: IC50, inhibition of 125 endothelin-1 binding; cited from earlier work.
For test [2], the target named is cardiovascular receptors (aortic smooth muscle membrane). Conditions: read-out: IC50, inhibition of 125 endothelin-1 binding; cited from earlier work.
For a further test, the system named is endothelinB receptor. Particulars: endothelinB receptor-rich tissues; cited from earlier work.
Test [3] has as its target cardiovascular receptors (ventricle membranes). Conditions: read-out: IC50, inhibition of 125 endothelin-1 binding; cited from earlier work.
The next test concerns vasoconstriction. Particulars: cited from earlier work.
The next test relates to isolated vascular strips. Particulars: read-out: EC50, contractile agent; cited from earlier work.
For test [4], the system named is ETB receptors (non-cardiovascular tissues). Conditions: kidney, adrenal gland, cerebellum; cited from earlier work.
Test [5] has as its system ETA receptors (cardiovascular tissues). Particulars: cited from earlier work.
Test [6] deals with T1, endothelin receptors (TE 671 cells) (Homo sapiens, UniProt P25101).
T1 construct: host or cells: TE 671 cells (membrane preparation)
T1 sequence (P25101 21-427): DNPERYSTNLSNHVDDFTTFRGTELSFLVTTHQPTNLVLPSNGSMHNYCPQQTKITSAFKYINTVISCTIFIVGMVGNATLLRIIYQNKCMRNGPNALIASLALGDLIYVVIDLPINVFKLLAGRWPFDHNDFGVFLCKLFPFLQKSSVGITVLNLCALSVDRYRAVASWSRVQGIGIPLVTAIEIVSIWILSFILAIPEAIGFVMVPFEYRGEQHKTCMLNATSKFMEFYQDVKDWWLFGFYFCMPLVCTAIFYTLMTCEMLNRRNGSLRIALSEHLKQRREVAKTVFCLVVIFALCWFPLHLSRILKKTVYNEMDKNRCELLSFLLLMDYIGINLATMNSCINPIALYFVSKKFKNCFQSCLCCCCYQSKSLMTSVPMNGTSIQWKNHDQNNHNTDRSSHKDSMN
The experiment in a line: Endothelin Binding Inhibition Binding Test #1: inhibition of 125I-ET-1 binding to TE 671 cell membranes. Conditions: 125I-ET-1, TE 671 membranes, 4° C. for 16 hours, test compound 1 nM to 100 μM, triplicate. As to the method:
(§1) TE 671 cells (ATCC Accession No. HTB 139) were grown to confluence in T-175 flasks. Cells from multiple flasks were collected by scraping, pooled and centrifuged for 10 min at 190×g. The cells were resuspended in phosphate buffered saline (PBS) containing 10 mM EDTA using a Tenbroeck homogenizer. The suspension was centrifuged at 4° C. at 57,800×g for 15 min, the pellet was resuspended in 5 ml of buffer A (5 mM HEPES buffer, pH 7.4 containing aprotinin (100 KIU/ml)) and then frozen and thawed once. 5 ml of Buffer B (5 mM HEPES Buffer, pH 7.4 containing 10 mM MnCI2 and 0.001% deoxyribonuclease Type 1) was added, the suspension mixed by inversion and then incubated at 37° C. for 30 minutes. The mixture was centrifuged at 57,800×g as described above, the pellet washed twice with buffer A and then resuspended in buffer C (30 mM HEPES buffer, pH 7.4 containing aprotinin (100 KIU/ml) to give a final protein concentration of 2 mg/ml and stored at -70° C. until use.
The membrane suspension was diluted with binding buffer (30 mM HEPES buffer, pH 7.4 containing 150 mM NaCl, 5 mM MgCl2, 0.5% Bacitracin, 0.1% BSA) to a concentration of 6 μg/100 μl. […] The supernatant, containing unbound radioactivity, was decanted and the pellet counted on a Genesys multiwell gamma counter. The degree of inhibition of binding (D) was calculated according to the following equation: [formula] […]

The subject of another test is human ETB receptor. Nature of the test: Endothelin Inhibition Binding Test #2: membranes of COS7 cells expressing the human ETB receptor. Particulars: 125I-ET-1, COS7 membranes expressing human ETB receptor. The procedure:
COS7 cells were transfected with DNA encoding the ETB receptor, The resulting cells, which express the human ETB receptor, were grown to confluence in T-150 flasks. Membrane was prepared as described above. The binding assay was performed as described above using the membrane preparation diluted with binding buffer to a concentration of 1 μg/100 μl.
as §1, with “The COS7 cells, described above, that had been transfected with DNA encoding the ETB receptor and express the human ETB receptor were” for “TE 671 cells (ATCC Accession No. HTB 139) were”, “10 min.” for “10 min”, “A (5mM” for “A (5 mM”, “mM MnCl2” for “mM MnCI2”, “2 mg/ml. […]” for “2 mg/ml and stored at -70° C. until use.”

A further test has as its system endothelin-1. Conditions: cited from earlier work.
The subject of test [7] is porcine pulmonary arteries. Particulars: cited from earlier work.
In test [8] the test system is ETB receptors (cerebral tissue). Particulars: cited from earlier work.

Square brackets hold non-standard residues; d marks the D form. Ends that are not written are not given here. Peptide text beside a SMILES is read from it. d(aIle) = CC[C@H](C)[C@@H](N)C(=O)O

In general, IC50 refers to the concentration that gives 50% inhibition. With `CC[C@H](C)[C@H]1NC(=O)[C@H](C)NC(=O)[C@@H](CCC(=O)O)NC(=O)[C@@H](Cc2c[nH]c3ccccc23)NC(=O)[C@H](CC(C)C)NC1=O` [BE-18257B, c(D-Glu-L-Ala-allo-D-Ile-L-Leu-D-Trp)] (cyclo(A[d(aIle)]L[dW][dE])), the concentration for half-maximal inhibition (IC50) was 0.5 µM in [1], 1.4 µM in test [2] and 0.8 µM in test [3]. For the same molecule, in the test with endothelinB receptor, the “concentration up to which it fails to inhibit binding” value is above 100 µM.

What is called EC50 is the concentration at which the effect is half-maximal. “endothelin-1: potent twenty-one amino acid peptide vasoconstrictor”: the vasoconstriction potency order result in the test with vasoconstriction is “endothelin-2>endothelinol>endothelin-3”. In addition, the EC50 in the test on isolated vascular strips was 0.0004 µM. Also, the “inhibition of 125 endothelin-1 binding” value in test [4] is “inhibited to the same extent by endothelin-1 and endothelin-3”. In addition, the “potency of inhibition of 125 endothelin-1 binding relative to endothelin-3” value in [5] is reported as 40-700.

In the case of “(Thr^2, Phe^4, Thr^5, Tyr^6, Lys^7, Tyr^14) endothelin-1 [endothelin-3]”, the vasoconstriction potency order result in the test with vasoconstriction is recorded as “endothelin-2>endothelinol>endothelin-3”. Also, in test [4], the “inhibition of 125 endothelin-1 binding” value is “inhibited to the same extent by endothelin-1 and endothelin-3”.

As for “(Trp^6,Leu^7) endothelin-1 (CSCSSWLDKECVYFCHLDIIW; ends and bridges not checked; cysteine pairing not given here; UniProt P20800 49-69, looked up) [endothelin-2, endothelin isopeptide]”, in the test on vasoconstriction, the vasoconstriction potency order result is “endothelin-2>endothelinol>endothelin-3”.

Consider `O=C(O)C1CCC2C(=O)NC(Cc3c[nH]c4ccccc34)C(=O)N12` (stereo not shown) [3-(3-indolylmethyl)-1,4-diaza-2,5-dioxobicyclo[4.3.0]nonane-9-carboxylic acid], for which, in test [6], the IC50 turned out to be 22.5 µM. Moreover, the “activity in the second binding inhibition assay” value with human ETB receptor is listed as “no detectable activity”.

For the molecule `CC(C)C[C@@H]1NC(=O)[C@@H](C(C)C)NC(=O)[C@@H]2CCCN2C(=O)[C@@H](CC(=O)O)NC(=O)[C@@H](Cc2c[nH]c3ccccc23)NC1=O` [BQ-123, c(D-Asp-Pro-D-Val-Leu-D-Trp)] (cyclo(L[dW][dD]P[dV])), in the test on endothelin-1, the “activity as endothelin-1 antagonists” value is recorded as “exhibit activity as endothelin-1 antagonists”.

As to “[Ala^1,3,11,15 ]endothelin-1: endothelin-1 analog in which the four cys residues are replaced with Ala (ASASSLMDKEAVYFAHLDIIW; Endothelin-1; UniProt P05305 53-73, looked up, variant C1A C3A C11A C15A)”, the “relaxation of pre-contracted arteries” value in test [7] is “dose-dependent relaxation of pre-contracted porcine pulmonary arteries”. In [8], the “inhibition of 125 ET-1 binding” value is “inhibits ^125 ET-1 binding to cerebral tissue”.

These data come from patent US5543521A, “Compounds that modulate endothelin activity” (Immunopharmaceutics, Inc., priority 1994, dated 1996).
